Test results taken from patent publication US20050215614A1, “Substituted indoles and their use as hcv inhibitors” (Rigel Pharmaceuticals, Inc., priority 2003, published 2005).

System: HCV replicon
Experiment: HCV Replicon Assay (luciferase, 5-2 Luc replicon cells)
Type: cell-based
Settings: 5-2 Luc replicon cells (Huh7), 24-48 hours with compound, luciferase counts
Method in brief: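 Huh7-derived 5-2 Luc replicon cells were seeded at 5000-7500 cells/well, grown 24 h at 37° C. and 5% CO2, then exposed to serial compound concentrations for 24-48 hours.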

SMILES | Activity (concentration of inhibitory activity)
Cc1cc2cc(NC(=O)C3CCCC3)ccc2n1C(=O)c1cccc(OC(F)(F)F)c1 [Compound 240] | b (“b” indicates activity is at a concentration greater than 10 micromolar)
Cc1cc2cc(NC(=O)C(Cl)Cl)ccc2n1C(=O)c1c(Cl)cccc1Cl [Compound 241] | b (“b” indicates activity is at a concentration greater than 10 micromolar)
Cc1cc2cc(NC(=O)c3cccs3)ccc2n1C(=O)c1c(Cl)cccc1Cl [Compound 242] | b (“b” indicates activity is at a concentration greater than 10 micromolar)
Cc1cc2cc(NC(=O)c3cccc(C(F)(F)F)c3)ccc2n1C(=O)c1c(Cl)cccc1Cl [Compound 243] | b (“b” indicates activity is at a concentration greater than 10 micromolar)
Cc1cc2cc(NC(=O)c3cccc(F)c3)ccc2n1C(=O)c1c(Cl)cccc1Cl [Compound 244] | b (“b” indicates activity is at a concentration greater than 10 micromolar)
Cc1cc2cc(NC(=O)c3nc4ccccc4s3)ccc2n1C(=O)c1c(Cl)cccc1Cl [Compound 245] | b (“b” indicates activity is at a concentration greater than 10 micromolar)
CC(=O)N1CCC(C(=O)Nc2ccc3c(c2)cc(C)n3C(=O)c2c(Cl)cccc2Cl)CC1 [Compound 246] | b (“b” indicates activity is at a concentration greater than 10 micromolar)
O=C(Nc1ccc2c(ccn2C(=O)c2c(Cl)cccc2Cl)c1)C1CCCC1 [Compound 247] | b (“b” indicates activity is at a concentration greater than 10 micromolar)
O=C(Nc1ccc2c(ccn2C(=O)c2c(Cl)cccc2Cl)c1)C(Cl)Cl [Compound 248] | b (“b” indicates activity is at a concentration greater than 10 micromolar)
O=C(Nc1ccc2c(ccn2C(=O)c2c(Cl)cccc2Cl)c1)c1cccc(F)c1 [Compound 249] | b (“b” indicates activity is at a concentration greater than 10 micromolar)
O=C(Nc1ccc2c(ccn2C(=O)c2c(Cl)cccc2Cl)c1)c1cccc(C(F)(F)F)c1 [Compound 250] | b (“b” indicates activity is at a concentration greater than 10 micromolar)
O=C(Nc1ccc2c(ccn2C(=O)c2c(Cl)cccc2Cl)c1)c1cccs1 [Compound 251] | b (“b” indicates activity is at a concentration greater than 10 micromolar)
O=C(Nc1ccc2c(ccn2C(=O)c2c(Cl)cccc2Cl)c1)C1CCCCC1 [Compound 252] | b (“b” indicates activity is at a concentration greater than 10 micromolar)
O=C(Nc1ccc2c(ccn2C(=O)c2c(Cl)cccc2Cl)c1)C1CC1 [Compound 254] | b (“b” indicates activity is at a concentration greater than 10 micromolar)
O=C(Cc1cccnc1)Nc1ccc2c(ccn2C(=O)c2c(Cl)cccc2Cl)c1 [Compound 255] | b (“b” indicates activity is at a concentration greater than 10 micromolar)
Cc1cc2cc(NC(=O)c3sccc3Cl)ccc2n1C(=O)c1c(Cl)cccc1Cl [Compound 256] | b (“b” indicates activity is at a concentration greater than 10 micromolar)
Cc1cc2cc(NC(=O)c3cccnc3)ccc2n1C(=O)c1c(F)cccc1C(F)(F)F [Compound 257] | b (“b” indicates activity is at a concentration greater than 10 micromolar)
O=C(Nc1ccc2c(ccn2C(=O)c2c(Cl)cccc2Cl)c1)C1CCC1 [Compound 258] | b (“b” indicates activity is at a concentration greater than 10 micromolar)
Cc1cc2cc(NC(=O)C3CC3)ccc2n1C(=O)c1ccccc1 [Compound 259] | b (“b” indicates activity is at a concentration greater than 10 micromolar)
Cc1cc2cc(NC(=O)C3CCCCC3)ccc2n1C(=O)c1ccccc1 [Compound 260] | b (“b” indicates activity is at a concentration greater than 10 micromolar)
Cc1cccc(F)c1C(=O)n1c(C)cc2cc(NC(=O)C3CCCCC3)ccc21 [Compound 262] | b (“b” indicates activity is at a concentration greater than 10 micromolar)
Cc1cc2cc(NC(=O)CBr)ccc2n1C(=O)c1c(Cl)cccc1Cl [Compound 263] | b (“b” indicates activity is at a concentration greater than 10 micromolar)
Cc1cc2cc(NC(=O)C3CCCCC3)ccc2n1C(=O)c1c(Cl)cncc1Cl [Compound 265] | b (“b” indicates activity is at a concentration greater than 10 micromolar)
Cc1cc2cc(NC(=O)C3CCNCC3)ccc2n1C(=O)c1c(Cl)cccc1Cl [Compound 266] | a (“a” indicates inhibitory activity at a concentration of less than 10 micromolar)

SMILES | Activity (concentration of inhibitory activity)
Cc1cc2cc(NC(=O)C3CCCCC3)ccc2n1C(=O)c1c(Cl)cccc1Cl [Compound 267] | b (“b” indicates activity is at a concentration greater than 10 micromolar)
Cc1cc2cc(NC(=O)[C@H]3CCCN3)ccc2n1C(=O)c1c(Cl)cccc1Cl [Compound 268] | b (“b” indicates activity is at a concentration greater than 10 micromolar)
Cc1cc2cc(NC(=O)C3CCN(C(=O)OC(C)(C)C)CC3)ccc2n1C(=O)c1c(F)cccc1Cl [Compound 269] | b (“b” indicates activity is at a concentration greater than 10 micromolar)
Cc1cccc(C)c1C(=O)n1c(C)cc2cc(NC(=O)[C@H]3CCCN3)ccc21 [Compound 270] | b (“b” indicates activity is at a concentration greater than 10 micromolar)
Cc1cc2cc(NC(=O)[C@H]3CCCN3)ccc2n1C(=O)c1c(F)cccc1Cl [Compound 271] | b (“b” indicates activity is at a concentration greater than 10 micromolar)
Cc1cc2cc(NC(=O)C3CCCNC3)ccc2n1C(=O)c1c(F)cccc1Cl (centres unmarked) [Compound 272] | b (“b” indicates activity is at a concentration greater than 10 micromolar)
Cc1cc2cc(NC(=O)C3CCNCC3)ccc2n1C(=O)c1c(F)cccc1Cl [Compound 273] | b (“b” indicates activity is at a concentration greater than 10 micromolar)
CCc1ccc(C(=O)n2c(C)cc3cc(NC(=O)C4CCCC4)ccc32)cc1 [Compound 274] | b (“b” indicates activity is at a concentration greater than 10 micromolar)
Cc1cc2cc(NC(=O)C3CCCC3)ccc2n1C(=O)c1cc(Cl)cc(Cl)c1 [Compound 275] | b (“b” indicates activity is at a concentration greater than 10 micromolar)
Cc1cc2cc(NC(=O)C3CCCC3)ccc2n1C(=O)c1ccc(Cl)cc1 [Compound 276] | b (“b” indicates activity is at a concentration greater than 10 micromolar)
Cc1ccccc1C(=O)n1c(C)cc2cc(NC(=O)C3CCCC3)ccc21 [Compound 277] | b (“b” indicates activity is at a concentration greater than 10 micromolar)
CC(C)(C)c1cc2cc(NC(=O)c3ccc(C(F)(F)F)cc3)ccc2[nH]1 [Compound 278] | a (“a” indicates inhibitory activity at a concentration of less than 10 micromolar)
CC(C)(C)c1cc2cc(NC(=O)c3cc(Cl)nc(Cl)c3)ccc2[nH]1 [Compound 279] | a (“a” indicates inhibitory activity at a concentration of less than 10 micromolar)
COc1cc(C(=O)Nc2ccc3[nH]c(C(C)(C)C)cc3c2)cc(OC)c1OC [Compound 280] | b (“b” indicates activity is at a concentration greater than 10 micromolar)
CCC(C)(C)c1cc2cc(NC(=O)C(C)(C)C)ccc2[nH]1 [Compound 282] | b (“b” indicates activity is at a concentration greater than 10 micromolar)
CCC(C)(C)c1cc2cc(NC(=O)/C=C/c3ccccc3)ccc2[nH]1 [Compound 283] | b (“b” indicates activity is at a concentration greater than 10 micromolar)
CCC(C)(C)c1cc2cc(NC(=O)c3ccc(C(C)(C)C)cc3)ccc2[nH]1 [Compound 284] | b (“b” indicates activity is at a concentration greater than 10 micromolar)
CCC(C)(C)c1cc2cc(NC(=O)c3c(F)cccc3F)ccc2[nH]1 [Compound 285] | a (“a” indicates inhibitory activity at a concentration of less than 10 micromolar)
CCC(C)(C)c1cc2cc(NC(=O)c3cccc(C(F)(F)F)c3)ccc2[nH]1 [Compound 286] | a (“a” indicates inhibitory activity at a concentration of less than 10 micromolar)
CCC(C)(C)c1cc2cc(NC(=O)C(c3ccccc3)c3ccccc3)ccc2[nH]1 [Compound 287] | b (“b” indicates activity is at a concentration greater than 10 micromolar)
CCC(C)(C)c1cc2cc(NC(=O)c3cccs3)ccc2[nH]1 [Compound 288] | b (“b” indicates activity is at a concentration greater than 10 micromolar)
CCC(C)(C)c1cc2cc(NC(=O)c3cc(Cl)nc(Cl)c3)ccc2[nH]1 [Compound 289] | a (“a” indicates inhibitory activity at a concentration of less than 10 micromolar)
CC(C)(C)c1cc2cc(NC(=O)C3CC3)ccc2[nH]1 [Compound 290] | a (“a” indicates inhibitory activity at a concentration of less than 10 micromolar)
